Measurements published in US4436753A, “Method for therapy of ischemic disease” (Takeda Chemical Industries, Ltd., priority 1979, dated 1984).

Experiments:
SHRSP [1] = experiment: Antihypertensive action; format: in vivo, rat; conditions: 35 mg/kg daily oral
Description: | ^1 Each group consisted of 12 animals.

normal rats = experiment: Protecting effect against heart failure (Adriamycin-induced), normal rats; format: in vivo, rat; conditions: Adriamycin 1 mg/kg/day i.p., compound 10 mg/kg/day oral, 10 days
Description: Adriamycin (1 mg/kg/day) was intraperitoneally administered to normal rats and, after 2 weeks, the compound of the invention (I, n=10) (10 mg/kg/day) was orally administered, and the cardiac functional state was examined electrocardiographically and biochemically. […] In addition, the tissue lactic acid level, an index of myocardinal energy state, was lowered.

[2] = system: Spontaneously hypertensive rats; experiment: Protecting effect against heart failure (drug-induced cardiac insufficiency), spontaneously hypertensive rats; format: in vivo, rat; conditions: administration period 10 days
[3] = system: bovine heart mitochondria deactivated by treatment with acetone (succinate oxidase activity); experiment: Mitochondrial respiration activating effect (succinate oxidase oxygen consumption); format: biochemical; conditions: 5 n mole added; 23° C.; succinate substrate; acetone-treated mitochondria
Description: The effect of activating the respiration of bovine heart mitochondria deactivated by treatment with acetone was evaluated by the method of Lester and Fleischer (Biochim. Biophys. Acta, vol. 113, p. 519, 1966). The respiration activating effect was expressed in terms of oxygen consumption due to succinate oxidase activity, succinic acid being the substrate.
*The rate was measured at 23° C. using an oxygen electrode
apparatus (Gilson's model KIC). Composition of the reaction medium (2 ml)
0.2 M sucrose, 10 mM Trishydrochloric acid (pH 7.4), 20 mM KCl, 3 mM
MgCl2, 50 μM EDTA.2Na, 1.99 mg (as protein) acetonetreated
mitochondria, 50 μM potassium succinate, 0.2 mg cytochrome C, and 5
μl 1% Nikkol OP10 ® (polyoxyethylene octylphenyl ether; Produced b
Nikko Chemicals) solution of the test sample (in the case of the test
sample) or 5 μl 1% Nikkol OP10 ® (Polyoxyethylene octylphenyl
ether; Produced by Nikko Chemicals) (in the case of the control).

SHRSP [4] = experiment: Improving effect on symptoms of cerebral apoplexy; format: in vivo, rat; conditions: 100 mg/kg/day oral, 21 days after first symptom
Description: SHRSP's were fed under sodium chloride loading as in Example 3. Upon manifestation of the first symptom, the sodium chloride loading was discontinued and at the same time oral administration of the compound of the invention (I, n=10) was commenced. After administration for 3 weeks, the dosed group was compared with the control group in respect of the severity of the symptoms. The severity was scored (0 for no symptoms to 5 for the severest) for each individual and the results were expressed in terms of the total score for the respective group. As shown by the results set forth in Table 4, the administration of the compound of the present invention alleviated the clinical symptoms after manifestation of the apoplexy. The body weight loss after the apoplexy was also depressed.

[5] = 2-week oral repeated dose toxicity (Reference Example 8); format: in vivo; conditions: gum arabic suspension, 100 mg/kg or 500 mg/kg daily for 2 weeks
Description: The compound of the present invention (I, n=10) was suspended in a gum arabic solution and oraly administered consecutively for 2 weeks at a daily dose of 100 mg/kg or 500 mg/kg, and examination of general condition, urinalysis and blood examination were carried out during the course of administration. Histopathology was done at the termination of the administration.

normal rat = experiment: Preventing effect against development of malignant hypertension (unilateral kidney excision, desoxycorticosterone acetate, 1% sodium chloride); format: in vivo; conditions: 50 mg/kg oral twice a day
Description: The kidney of each normal rat was unilaterally excised, and desoxycorticosterone acetate (10 mg/kg) was administered subcutaneously once a week. The rats were given a 1% aqueous sodium chloride solution as drinking water. On the day of operation and thereafter, the compound of the invention (I, n=10) was orally administered at a dose of 50 mg/kg twice a day, and the above indexes of aggravation were determined.

SHRSP [6] = experiment: Cerebral ischemia-protecting effect, carotid artery ligated on both sides; format: in vivo, rat
Description: Spontaneously hypertensive rats showing a strong tendency to cerebral apoplexy (hereinafter abbreviated to SHRSP) (Okamoto et al., Circulation Res., vol. 34-35, pp. 1-143, 1974), were newly established in 1974. When the carotid artery is ligated on both sides, apoplectic symptoms such as convulsion fit, respiratory distress and coma, which lead to death (the incidence being 100%), are observed.
The time to the manifestation of the symptoms and the time to death were prolonged also by the administration of 100 mg/kg for 3 days or 35 mg/kg for 14 days.

SHRSP [7] = experiment: Cerebral apoplexy preventing effect; format: in vivo, rat
Description: The SHRSP, fed with high sodium chloride level, are liable to develop cerebral apoplexy (cerebral hemorrhage or hemorrhagic infarction) with high incidence. The compound of the invention (I, n=10) was administered in admixture with the diet to a group of 12 male SHRSP.
^1 8week-old male SHRSP
^2 14week-old male SHRSP
^3 Number of apoplectic cases/number of animals used.

[8] = Experiment 2, 100 mg/kg/day, 3 days
[9] = Experiment 3, 35 mg/kg/day, 14 days

COC1=C(OC)C(=O)C(CCCCCCCCCCO)=C(C)C1=O [I (n = 10), 2,3-dimethoxy-5-methyl-6-(10-hydroxydecyl)-1,4-benzoquinone]
Blood pressure (SHRSP [1]; day 0): 175 ± 3 mmHg | Blood pressure (SHRSP [1]; day 7): 188 ± 4 mmHg | Blood pressure (SHRSP [1]; day 14): 199 ± 3 mmHg | Blood pressure (SHRSP [1]; day 21): 208 ± 4 mmHg | Heart lactic acid on wet weight basis (normal rats): 1.65 ± 0.1 µmol/g | QRS width (normal rats): 4.6 ± 0.4 ms | Heart lactic acid on wet weight basis [2]: 1.9 ± 0.12 µmol/g | QRS width [2]: 2.9 ± 0.2 ms | Oxygen consumption rate [3]: 45.0 ± 3.7 Oxygen (n atom)/minute/mg prot | Body weight loss (SHRSP [4]): 8 ± 3% | Severity of symptoms (total score of group; 0 to 5 per individual) (SHRSP [4]): 20 ± 3 | Abnormalities (general condition, urinalysis, blood examination, histopathology) [5]: could not reveal any abnormalities ascribable to the administration | Body weight (normal rat; day 0): 224 ± 4 g | Urine protein (normal rat; day 0): 47 ± 1 mg/day/250 g body weight | Body weight (normal rat; day 14): 269 ± 8 g | Urine protein (normal rat; day 14): 225 ± 38 mg/day/250 g body weight | Body weight (normal rat; day 21): 274 ± 13 g | Urine protein (normal rat; day 21): 367 ± 68 mg/day/250 g body weight | Time to convulsion fit (SHRSP [6]; Experiment 1, 15 mg/kg/day oral, 21 days): 119 ± 13 min | Time to convulsion fit (SHRSP [6]; [8]): 117 ± 15 min | Time to death (SHRSP [6]; [8]): 235 ± 27 min | Time to convulsion fit (SHRSP [6]; [9]): 93 ± 14 min | Time to death (SHRSP [6]; [9]): 242 ± 29 min | Spontaneous manifestation of cerebral apoplexy (in words) (SHRSP [7]; 10 SHRSP fed without sodium chloride loading): can prevent manifestation of cerebral apoplexy | Incidence of cerebral apoplexy (number of apoplectic cases/number of animals used) (SHRSP [7]; Experiment 1, sodium chloride loading +, 35 mg/kg/day in diet, 40 days, 8-week-old male SHRSP): 7/12 | Incidence of cerebral apoplexy (number of apoplectic cases/number of animals used) (SHRSP [7]; Experiment 2, no sodium chloride loading, 35 mg/kg/day, 45 days, 14-week-old male SHRSP): 5/10 | Cerebral apoplexy compared with the control group (in words) (SHRSP [7]; SHRSP fed with high sodium chloride level, compound in admixture with the diet, 12 male SHRSP): significantly (P<0.05 by Wilcoxon's two sample test) inhibited

COC1=C(OC)C(=O)C(CCCCCCCCCCCCCCCCCCO)=C(C)C1=O [I (n = 18), 6-(18-hydroxyoctadecyl)-2,3-dimethoxy-5-methyl-1,4-benzoquinone]
Oxygen consumption rate [3]: 44.5 ± 3.2 Oxygen (n atom)/minute/mg prot
